# From US20090149531A1, “CHEMICAL COMPOSITION DERIVED FROM P-HYDROXYPHENYL PROPIONIC ACID FOR THE TREATMENT OF PSORIASIS” (APOTEKNOS PARA LA PIEL, S.L., priority 2007, published 2009)
# Values joined by “and” are separate entries in the source; they are usually repeats but may differ in a detail not shown here. Equal entries are not always repeated.
# Tests used:
# [1] = Permeability study, pig ear skin in Franz cell; type: in vitro ADME; conditions: hydroalcoholic solution 63.6 μg/ml or 6.36 μg/ml
# Protocol: Skin from pig ears was used as the experimental system to which a hydroalcoholic solution of compound A 6.36×10^−2 mg/ml and 6.36×10^−3 mg/ml was applied, the reference product being a control hydroalcoholic solution (without compound A). For this study 4 different hydroalcoholic solutions were prepared. The first included 6.36 μg/ml of compound A, the second included 63.6 μg/ml, and the third and fourth were control solutions without compound A. All the preparations were tested on the pig ear skin experimental system. Samples were taken in the diffuser compartment at 6 different times (0, 1, 2, 6, 12 and 24 hours). All the samples (recipients) were quantified by HPLC. FIG. 1. Concentration of compound A in the recipient of the Franz cell for a sample with a concentration of 63.6 μg/ml of A. FIG. 2. Concentration of compound A in the recipient of the Franz cell for a sample with a concentration of 6.36 μg/ml of A.
# [2] = system: Salmonella typhimurium TA98; assay: Ames test without external metabolisation, TA98; type: cell-based; conditions: no metabolic activation; for Colonies per plate: individual plates 1-4, A; for Colonies per plate / Colonies per plate, Mean: 48 hours; for Mutagenic Ind,: relative to H+/B+
# Protocol: (§1) The mutagenic activity of compound A was evaluated using the Ames test without external metabolisation. The Ames test is based on the use of bacterial strains to detect mutations in the DNA in vitro using bacterial strains that make it possible to detect types of damage to the genome.
# (§2) Bacteria of 4 strains of Salmonella typhimurium that are internationally recommended for this test, TA1535, TA1537, TA98 and TA100, were used. The test was carried out according to highly standardised protocols. […] The test was carried out without external metabolic activation. The plates were incubated at 37° C. and the reverting colonies were counted after 48 hours.
# [3] = system: Salmonella typhimurium TA1535; assay: Ames test without external metabolisation, TA1535; type: cell-based; conditions: no metabolic activation; for Colonies per plate: individual plates 1-4, A; for Colonies per plate / Colonies per plate, Mean: 48 hours; for Mutagenic Ind,: relative to H+/B+
# Protocol: as §1, §2
# [4] = system: Salmonella typhimurium TA1537; assay: Ames test without external metabolisation, TA1537; type: cell-based; conditions: no metabolic activation; for Colonies per plate: individual plates 1-4; for Colonies per plate / Colonies per plate, Mean: 48 hours; for Mutagenic Ind,: relative to H+/B+
# Protocol: as §1, §2
# [5] = system: cell hyperproliferation in hairless rats; assay: Model of desquamation in hairless rats: corneous material extracted; type: in vivo; conditions: for amount of corneous material extracted, total sum of the right and left flanks, Portal No, 1 / amount of corneous material extracted, total sum of the right and left flanks, Portal No, 2 / amount of corneous material extracted, total sum of the right and left flanks, Portal No, 3 / amount of corneous material extracted, total sum of the right and left flanks, Portal No, 4 / amount of corneous material extracted, total sum of the right and left flanks, Portal No, 5 / amount of corneous material extracted, total sum of the right and left flanks, Portal No, 6: day 11
# Protocol: The activity of compound A on cell hyperproliferation in hairless rats was evaluated using the model of desquamation in hairless rats described in the publication: Bräutigam, M., Hübner, H., Rach, P., Thieroff-Ekerdi, R. “Effects of Calcipotriol (MC 903) and Calcitriol after Topical Application on the Skin of Hairless Rats”, Skin Pharmacol 1992; 5:87-92.
# (§3) To do this Calcitriol was used as the reference product at 0.01% and compound A was used as the test product at 1% and 0.1% (100 μg/cm^2 and 10 μg/cm^2, respectively). A Control Group was included, administered only with the vehicle (absolute ethanol).
# The animals were randomly distributed into the following experimental groups:
# (§4) The treatments were administered topically, once a day for 10 days (100 μg/side/animal). The animals were weighed on a daily basis throughout the study and the grade of erythema was evaluated (0=Absence of erythema, 1=Low grade erythema, 3=High grade erythema). On the last day of the study, day 11, the amount of corneous material extracted from the epidermis of the animals was evaluated.
# [6] = Assessment of erythema in the hairless rat study; type: in vivo, hairless rats; conditions: 0=absence, 1=low grade, 3=high grade
# Protocol: as §3, §4
# [7] = Body weight in the hairless rat study; type: in vivo, hairless rats
# Protocol: as §3, §4
# [8] = Compound A 0.1% (10 μg/cm^2) topical once a day for 10 days
# [9] = Compound A 1% (100 μg/cm^2) topical once a day for 10 days
# [10] = Compound A 0.1% topical once a day, Baseline
# [11] = Compound A 0.1% topical once a day, Day 2
# [12] = Compound A 0.1% topical once a day, Day 3
# [13] = Compound A 0.1% topical once a day, Day 4
# [14] = Compound A 0.1% topical once a day, Day 5
# [15] = Compound A 0.1% topical once a day, Day 6
# [16] = Compound A 0.1% topical once a day, Day 7
# [17] = Compound A 0.1% topical once a day, Day 8
# [18] = Compound A 0.1% topical once a day, Day 9
# [19] = Compound A 0.1% topical once a day, Day 10
# [20] = Compound A 0.1% topical once a day, Day 11
# [21] = Compound A 1% topical once a day, Baseline
# [22] = Compound A 1% topical once a day, Day 2
# [23] = Compound A 1% topical once a day, Day 3
# [24] = Compound A 1% topical once a day, Day 4
# [25] = Compound A 1% topical once a day, Day 5
# [26] = Compound A 1% topical once a day, Day 6
# [27] = Compound A 1% topical once a day, Day 7
# [28] = Compound A 1% topical once a day, Day 8
# [29] = Compound A 1% topical once a day, Day 9
# [30] = Compound A 1% topical once a day, Day 10
# [31] = Compound A 1% topical once a day, Day 11
smiles,measurement,setting,value
C=C1C(=O)O[C@H](CCc2ccc(OC)cc2)[C@@H]1C [Compound A],amount of compound A dissolved in the recipient,"[1]; samples at 0-24 hours, HPLC quantification limit",< 0.01 mg/mL
same,transdermal flow through the skin of the pig ear,[1]; up to 24 hours,no transdermal flow
same,Colonies per plate,[2]; Comp. A 10 μg/ml,9 and 6 and 12 and 14
same,"Colonies per plate, Mean",[2]; Comp. A 10 μg/ml,10.25
same,"Mutagenic Ind,",[2]; Comp. A 10 μg/ml,1.079
same,Colonies per plate,[2]; Comp. A 100 μg/ml,15 and 12 (2×) and 8
same,"Colonies per plate, Mean",[2]; Comp. A 100 μg/ml,11.75
same,"Mutagenic Ind,",[2]; Comp. A 100 μg/ml,1.237
same,Colonies per plate,[2]; Comp. A 1 mg/ml,8 and 4 and 6 and 17
same,"Colonies per plate, Mean",[2]; Comp. A 1 mg/ml,8.75
same,"Mutagenic Ind,",[2]; Comp. A 1 mg/ml,0.9211
same,Ames test result (mutagenic effects),"[2]; TA98, concentrations evaluated 10 μg/ml to 1 mg/ml",negative
same,Colonies per plate,[3]; Comp. A 10 μg/ml,1 (2×) and 2 and 0
same,"Colonies per plate, Mean",[3]; Comp. A 10 μg/ml,1
same,"Mutagenic Ind,",[3]; Comp. A 10 μg/ml,0.5
same,Colonies per plate,[3]; Comp. A 100 μg/ml,1 (2×) and 2 and 0
same,"Colonies per plate, Mean",[3]; Comp. A 100 μg/ml,1
same,"Mutagenic Ind,",[3]; Comp. A 100 μg/ml,0.5
same,Colonies per plate,[3]; Comp. A 1 mg/ml,1 (2×) and 0 and 2
same,"Colonies per plate, Mean",[3]; Comp. A 1 mg/ml,1
same,"Mutagenic Ind,",[3]; Comp. A 1 mg/ml,0.5
same,Ames test result (mutagenic effects),"[3]; TA1535, concentrations evaluated 10 μg/ml to 1 mg/ml",negative
same,Colonies per plate,"[4]; Comp. A 10 μg/ml, A",0 (3×) and 1
same,"Colonies per plate, Mean",[4]; Comp. A 10 μg/ml,0.25
same,"Mutagenic Ind,",[4]; Comp. A 10 μg/ml,0.5
same,Colonies per plate,"[4]; Comp. A 100 μg/ml, A",0 (2×) and 1 and 2
same,"Colonies per plate, Mean",[4]; Comp. A 100 μg/ml,0.75
same,"Mutagenic Ind,",[4]; Comp. A 100 μg/ml,1.5
same,Colonies per plate,[4]; Comp. A 1 mg/ml,0
same,"Colonies per plate, Mean",[4]; Comp. A 1 mg/ml,0
same,"Mutagenic Ind,",[4]; Comp. A 1 mg/ml,0
same,Ames test result (mutagenic effects),"[4]; TA1537, concentrations evaluated 10 μg/ml to 1 mg/ml",negative
same,"amount of corneous material extracted, total sum of the right and left flanks, Portal No, 1",[5]; [8],3.1 ± 0.17 mg
same,"amount of corneous material extracted, total sum of the right and left flanks, Portal No, 2",[5]; [8],1.7 ± 0.08 mg
same,"amount of corneous material extracted, total sum of the right and left flanks, Portal No, 3",[5]; [8],1.1 ± 0.14 mg
same,"amount of corneous material extracted, total sum of the right and left flanks, Portal No, 4",[5]; [8],1.1 ± 0.22 mg
same,"amount of corneous material extracted, total sum of the right and left flanks, Portal No, 5",[5]; [8],1.1 ± 0.28 mg
same,"amount of corneous material extracted, total sum of the right and left flanks, Portal No, 6",[5]; [8],8.1 ± 0.47 mg
same,"amount of corneous material extracted, total sum of the right and left flanks, Portal No, 1",[5]; [9],3.1 ± 0.75 mg
same,"amount of corneous material extracted, total sum of the right and left flanks, Portal No, 2",[5]; [9],2.7 ± 0.23 mg
same,"amount of corneous material extracted, total sum of the right and left flanks, Portal No, 3",[5]; [9],2.0 ± 0.26 mg
same,"amount of corneous material extracted, total sum of the right and left flanks, Portal No, 4",[5]; [9],1.4 ± 0.169 mg
same,"amount of corneous material extracted, total sum of the right and left flanks, Portal No, 5",[5]; [9],1.4 ± 0.23 mg
same,"amount of corneous material extracted, total sum of the right and left flanks, Portal No, 6",[5]; [9],12.6 ± 0.76 mg
same,effect on the animals' skin (corneous material extracted),"[5]; compound A at 0.1%, topical",no effect
same,amount of corneous material extracted in relation to the control group and compound A at 0.1%,"[5]; compound A at 1%, Student Newman Keuls, p<0.01",statistically significant differences
same,Assessment of erythema (mean grade),[6]; [10],0.0 ± 0.00
same,Assessment of erythema (mean grade),[6]; [11],0.0 ± 0.00
same,Assessment of erythema (mean grade),[6]; [12],0.0 ± 0.00
same,Assessment of erythema (mean grade),[6]; [13],0.0 ± 0.00
same,Assessment of erythema (mean grade),[6]; [14],0.0 ± 0.00
same,Assessment of erythema (mean grade),[6]; [15],0.0 ± 0.00
same,Assessment of erythema (mean grade),[6]; [16],0.0 ± 0.00
same,Assessment of erythema (mean grade),[6]; [17],0.0 ± 0.00
same,Assessment of erythema (mean grade),[6]; [18],0.0 ± 0.00
same,Assessment of erythema (mean grade),[6]; [19],0.0 ± 0.00
same,Assessment of erythema (mean grade),[6]; [20],0.0 ± 0.00
same,Assessment of erythema (mean grade),[6]; [21],0.0 ± 0.00
same,Assessment of erythema (mean grade),[6]; [22],1.0 ± 0.00
same,Assessment of erythema (mean grade),[6]; [23],1.0 ± 0.00
same,Assessment of erythema (mean grade),[6]; [24],1.2 ± 0.11
same,Assessment of erythema (mean grade),[6]; [25],1.3 ± 0.17
same,Assessment of erythema (mean grade),[6]; [26],1.5 ± 0.22
same,Assessment of erythema (mean grade),[6]; [27],1.5 ± 0.22
same,Assessment of erythema (mean grade),[6]; [28],1.2 ± 0.40
same,Assessment of erythema (mean grade),[6]; [29],0.9 ± 0.15
same,Assessment of erythema (mean grade),[6]; [30],0.9 ± 0.15
same,Assessment of erythema (mean grade),[6]; [31],1.2 ± 0.17
same,Body weight,[7]; [10],0.0 ± 0.00 g
same,Body weight,[7]; [11],0.0 ± 0.00 g
same,Body weight,[7]; [12],0.0 ± 0.00 g
same,Body weight,[7]; [13],0.0 ± 0.00 g
same,Body weight,[7]; [14],0.0 ± 0.00 g
same,Body weight,[7]; [15],0.0 ± 0.00 g
same,Body weight,[7]; [16],0.0 ± 0.00 g
same,Body weight,[7]; [17],0.0 ± 0.00 g
same,Body weight,[7]; [18],0.0 ± 0.00 g
same,Body weight,[7]; [19],0.0 ± 0.00 g
same,Body weight,[7]; [20],0.0 ± 0.00 g
same,Body weight,[7]; [21],0.0 ± 0.00 g
same,Body weight,[7]; [22],1.0 ± 0.00 g
same,Body weight,[7]; [23],1.0 ± 0.00 g
same,Body weight,[7]; [24],1.2 ± 0.11 g
same,Body weight,[7]; [25],1.3 ± 0.17 g
same,Body weight,[7]; [26],1.5 ± 0.22 g
same,Body weight,[7]; [27],1.5 ± 0.22 g
same,Body weight,[7]; [28],1.2 ± 0.40 g
same,Body weight,[7]; [29],0.9 ± 0.15 g
same,Body weight,[7]; [30],0.9 ± 0.15 g
same,Body weight,[7]; [31],1.2 ± 0.17 g
